In patent US20140187784A1, “RADIOACTIVE QUINOLINONE DERIVATIVE AND PHARMACEUTICAL DRUG COMPRISING THE SAME” (Nihon Medi-Physics Co., Ltd., priority 2012, published 2014):
Read-outs that look alike come from different tables or passages of the source.

Assays:
human CYP11B1 = target: T1, human CYP11B1 (Homo sapiens, UniProt P15538); assay: Inhibition of cortisol production in V79-B1 cells expressing human CYP11B1 (ELISA); format: cell-based; details: 11-deoxycortisol 100 nmol/L, 1 hour, unlabeled form, read-out: IC50 against cortisol production
T1 construct: expressed in transfected cells; host or cells: Chinese hamster lung-derived fibroblast V79 cells (V79-B1)
T1 sequence (P15538 25-503): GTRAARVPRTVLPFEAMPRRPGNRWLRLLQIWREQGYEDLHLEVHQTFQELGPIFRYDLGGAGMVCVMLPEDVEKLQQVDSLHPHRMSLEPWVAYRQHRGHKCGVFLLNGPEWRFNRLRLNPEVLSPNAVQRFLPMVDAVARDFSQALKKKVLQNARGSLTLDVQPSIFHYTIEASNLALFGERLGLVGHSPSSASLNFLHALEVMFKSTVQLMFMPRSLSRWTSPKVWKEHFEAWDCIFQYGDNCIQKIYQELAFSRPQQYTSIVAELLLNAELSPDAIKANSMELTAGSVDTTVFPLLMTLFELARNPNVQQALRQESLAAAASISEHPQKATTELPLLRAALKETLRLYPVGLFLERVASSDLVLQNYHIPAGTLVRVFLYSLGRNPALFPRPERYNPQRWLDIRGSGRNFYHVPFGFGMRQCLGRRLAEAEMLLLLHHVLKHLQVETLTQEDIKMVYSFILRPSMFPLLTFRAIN
Procedure: (§1) Chinese hamster lung-derived fibroblast V79 cells (obtained from European Collection of Cell Cultures (ECACC) via DS Pharma Biomedical Co., Ltd.) were allowed to express human CYP11B2 and human CYP11B1 to prepare V79-B2 and V79-B1, respectively. V79-B2 or V79-B1 was inoculated to a microplate and cultured overnight. Then, corticosterone and 11-deoxycortisol were added at final concentrations of 100 nmol/L into the culture supernatants of V79-B2 and V79-B1, respectively. At the same time, iodometomidate (IMTO) or the unlabeled form of PAY15, PAY21, PAY27, or PAY54 synthesized in Example 2, 5, 8, or 12 was added at a final concentration of 10^−4 to 10^3 nmol/L into the culture supernatants. One hour later, the culture supernatant of V79-B1 was recovered, and the concentration of cortisol, which is a metabolite of CYP11B1, was measured by enzyme-linked immunosorbent assay (ELISA). Four hours later, the culture supernatant of V79-B2 was recovered, and the concentration of aldosterone, which is a metabolite of CYP11B2, was measured by ELISA. […] IC50 against cortisol production/IC50 against aldosterone production was calculated and used as a selectivity factor for CYP11B2.

CYP11B2 [1] = target: T2, CYP11B2 (Homo sapiens, UniProt P19099); details: reported by Stefanie Hahner et al., J Clin Endocrinol Metab 2008; cited from earlier work
T2 sequence (P19099 25-503): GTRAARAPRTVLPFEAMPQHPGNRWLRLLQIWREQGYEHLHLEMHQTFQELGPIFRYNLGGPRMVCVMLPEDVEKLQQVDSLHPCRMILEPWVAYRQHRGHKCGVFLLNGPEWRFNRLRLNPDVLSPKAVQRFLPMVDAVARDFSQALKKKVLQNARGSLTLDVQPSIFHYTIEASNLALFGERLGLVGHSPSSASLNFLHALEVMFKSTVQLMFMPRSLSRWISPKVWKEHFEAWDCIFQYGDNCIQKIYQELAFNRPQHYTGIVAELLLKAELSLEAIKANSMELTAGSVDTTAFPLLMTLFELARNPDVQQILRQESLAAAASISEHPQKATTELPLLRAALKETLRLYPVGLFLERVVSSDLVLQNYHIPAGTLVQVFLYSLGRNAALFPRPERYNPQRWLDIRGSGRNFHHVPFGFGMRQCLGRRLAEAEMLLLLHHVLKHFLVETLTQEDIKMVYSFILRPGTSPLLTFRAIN

CYP11B2 [2] = target: T2, CYP11B2; assay: Inhibition of aldosterone production in V79-B2 cells expressing human CYP11B2 (ELISA); format: cell-based; parameters: expressed in transfected cells; host or cells: Chinese hamster lung-derived fibroblast V79 cells (V79-B2)
Procedure: as §1

[3] = Pharmacokinetic and distribution experiment using CD-1 (ICR) mice instead of ddy mice; format: in vivo; details: similar operation using CD-1 (ICR) mice instead of ddy mice
[4] = Stability evaluation in plasma (HPLC, RI detector); format: in vitro ADME; details: CD-1 mouse plasma, 37° C., incubation for 120 minutes
Procedure: The stability of [^125I]PAY21 in plasma was evaluated by the following procedures: Blood was collected from the heart of each CD-1 mouse. Plasma was separated by centrifugation and passed through Cosmonice filter (diameter: 4 mm, pore size: 0.45 μm, Nacalai Tesque, Inc.). 350 μL of the plasma thus filtered was incubated at 37° C. for 15 minutes. Then, 30 μL of a saline solution of [^125I]PAY21 (18.5 kBq (0.5 μCi)) was added thereto. After incubation for 120 minutes, a 100 μL aliquot of the mixture was separated and added to methanol (500 μL) under ice cooling. The mixture was further centrifuged, and the supernatant (400 μL) was analyzed by HPLC. The HPLC conditions were the same as those shown in Example 6.

[5] = Pharmacokinetic and distribution experiment (radioactivity in blood and excised organs after tail vein injection); format: in vivo; details: ddy mice; for Adrenal gland/Blood ratio / Adrenal gland/Kidney ratio / Adrenal gland/Liver ratio / Radioactivity Distribution, Adrenal gland / Radioactivity Distribution, Blood / Radioactivity Distribution, Heart / Radioactivity Distribution, Kidney / Radioactivity Distribution, Large intestine / Radioactivity Distribution, Liver / Radioactivity Distribution, Lung / Radioactivity Distribution, Pancreas / Radioactivity Distribution, Small intestine / Radioactivity Distribution, Spleen / Radioactivity Distribution, Stomach / Radioactivity Distribution, Thyroid: tail vein injection, 18.5 kBq (0.5 μCi)
Procedure, shortened: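 [^125I]PAY15 or PAY21 at 18.5 kBq (0.5 μCi), or [^18F]PAY27 or PAY54 at 14.8 kBq […], in saline given i.v. by tail vein to 6-week-old ddy mice (n=5). Blood and weighed organs (thyroid for 125I, thigh bone for 18F) counted for radioactivity at 5–120 min.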

SMILES: COC(=O)c1cncn1[C@H](C)c1ccc(I)cc1 [IMTO, iodometomidate, reference compound]
- IC50 (human CYP11B1): 0.13 nM
- Selectivity factor (CYP11B2 [1]): 0.261
- Selectivity factor (CYP11B2 [2]; IC50 against cortisol production/IC50 against aldosterone production, selectivity factor for CYP11B2): 0.93
- IC50 (CYP11B2 [2]; V79-B2 cells, corticosterone 100 nmol/L, 4 hours, unlabeled form, read-out: IC50 against aldosterone production): 0.14 nM

SMILES: COC(=O)c1cncn1C(C)c1ccccc1 (stereo not drawn) [MTO, metomidate]
- Selectivity factor (CYP11B2 [1]): 0.275
- selectivity for CYP11B1 versus CYP11B2 (CYP11B2 [1]): higher selectivity for steroid 11β-hydroxylase (CYP11B1) than that for aldosterone synthase (CYP11B2)

SMILES: O=C1CCc2cc(-c3cncc([125I])c3)cc3c2N1CC3 [[^125I]PAY21, 8-(5-[^125I]iodopyridin-3-yl)-1,2,5,6-tetrahydro-4H-pyrrolo[3,2,1-ij]quinolin-4-one]
- radioactivity distribution in CD-1 (ICR) mice compared with ddy mice [3]: no difference between the species
- peak area of intact compound after incubation in plasma [4]: approximately 60%
- radioactivity accumulation in the adrenal gland compared with blood and periadrenal tissues ([5]; at an early stage after administration): high radioactivity accumulation
- Adrenal gland/Blood ratio ([5]; 5 min): 1.71 ± 0.08
- Adrenal gland/Kidney ratio ([5]; 5 min): 1.52 ± 0.19
- Adrenal gland/Liver ratio ([5]; 5 min): 1.13 ± 0.14
- Radioactivity Distribution, Adrenal gland ([5]; 5 min): 9.7 ± 1.4 % dose/g
- Radioactivity Distribution, Blood ([5]; 5 min): 5.7 ± 0.8 % dose/g
- Radioactivity Distribution, Heart ([5]; 5 min): 3.6 ± 0.4 % dose/g
- Radioactivity Distribution, Kidney ([5]; 5 min): 6.4 ± 0.4 % dose/g
- Radioactivity Distribution, Large intestine ([5]; 5 min): 2.3 ± 0.4 % dose/g
- Radioactivity Distribution, Liver ([5]; 5 min): 8.6 ± 1.1 % dose/g
- Radioactivity Distribution, Lung ([5]; 5 min): 5.6 ± 0.7 % dose/g
- Radioactivity Distribution, Pancreas ([5]; 5 min): 4.0 ± 0.5 % dose/g
- Radioactivity Distribution, Small intestine ([5]; 5 min): 6.0 ± 1.0 % dose/g
- Radioactivity Distribution, Spleen ([5]; 5 min): 3.9 ± 0.4 % dose/g
- Radioactivity Distribution, Stomach ([5]; 5 min): 10.1 ± 1.6 % dose/g
- Radioactivity Distribution, Thyroid ([5]; 5 min): 114.1 ± 22.4 % dose/g
- Adrenal gland/Blood ratio ([5]; 15 min): 0.75 ± 0.17
- Adrenal gland/Kidney ratio ([5]; 15 min): 0.90 ± 0.24
- Adrenal gland/Liver ratio ([5]; 15 min): 1.12 ± 0.36
- Radioactivity Distribution, Adrenal gland ([5]; 15 min): 3.6 ± 1.0 % dose/g
- Radioactivity Distribution, Blood ([5]; 15 min): 4.7 ± 0.4 % dose/g
- Radioactivity Distribution, Heart ([5]; 15 min): 2.1 ± 0.3 % dose/g
- Radioactivity Distribution, Kidney ([5]; 15 min): 4.0 ± 0.6 % dose/g
- Radioactivity Distribution, Large intestine ([5]; 15 min): 2.2 ± 0.1 % dose/g
- Radioactivity Distribution, Liver ([5]; 15 min): 3.2 ± 0.4 % dose/g
- Radioactivity Distribution, Lung ([5]; 15 min): 4.1 ± 0.3 % dose/g
- Radioactivity Distribution, Pancreas ([5]; 15 min): 2.6 ± 0.3 % dose/g
- Radioactivity Distribution, Small intestine ([5]; 15 min): 8.1 ± 2.2 % dose/g
- Radioactivity Distribution, Spleen ([5]; 15 min): 3.0 ± 0.4 % dose/g
- Radioactivity Distribution, Stomach ([5]; 15 min): 28.4 ± 3.3 % dose/g
- Radioactivity Distribution, Thyroid ([5]; 15 min): 332.2 ± 43.1 % dose/g
- Adrenal gland/Blood ratio ([5]; 30 min): 0.76 ± 0.14
- Adrenal gland/Kidney ratio ([5]; 30 min): 0.82 ± 0.10
- Adrenal gland/Liver ratio ([5]; 30 min): 1.26 ± 0.20
- Radioactivity Distribution, Adrenal gland ([5]; 30 min): 2.8 ± 0.3 % dose/g
- Radioactivity Distribution, Blood ([5]; 30 min): 3.7 ± 0.4 % dose/g
- Radioactivity Distribution, Heart ([5]; 30 min): 1.5 ± 0.1 % dose/g
- Radioactivity Distribution, Kidney ([5]; 30 min): 3.4 ± 0.4 % dose/g
- Radioactivity Distribution, Large intestine ([5]; 30 min): 2.1 ± 0.2 % dose/g
- Radioactivity Distribution, Liver ([5]; 30 min): 2.2 ± 0.2 % dose/g
- Radioactivity Distribution, Lung ([5]; 30 min): 3.4 ± 0.3 % dose/g
- Radioactivity Distribution, Pancreas ([5]; 30 min): 2.4 ± 0.5 % dose/g
- Radioactivity Distribution, Small intestine ([5]; 30 min): 10.3 ± 2.8 % dose/g
- Radioactivity Distribution, Spleen ([5]; 30 min): 2.5 ± 0.6 % dose/g
- Radioactivity Distribution, Stomach ([5]; 30 min): 40.7 ± 3.5 % dose/g
- Radioactivity Distribution, Thyroid ([5]; 30 min): 1570.0 ± 165.0 % dose/g
- Adrenal gland/Blood ratio ([5]; 60 min): 0.54 ± 0.17
- Adrenal gland/Kidney ratio ([5]; 60 min): 0.65 ± 0.21
- Adrenal gland/Liver ratio ([5]; 60 min): 1.15 ± 0.38
- Radioactivity Distribution, Adrenal gland ([5]; 60 min): 1.9 ± 0.8 % dose/g
- Radioactivity Distribution, Blood ([5]; 60 min): 3.4 ± 0.6 % dose/g
- Radioactivity Distribution, Heart ([5]; 60 min): 1.3 ± 0.2 % dose/g
- Radioactivity Distribution, Kidney ([5]; 60 min): 2.9 ± 0.6 % dose/g
- Radioactivity Distribution, Large intestine ([5]; 60 min): 2.0 ± 0.4 % dose/g
- Radioactivity Distribution, Liver ([5]; 60 min): 1.6 ± 0.3 % dose/g
- Radioactivity Distribution, Lung ([5]; 60 min): 3.1 ± 0.6 % dose/g
- Radioactivity Distribution, Pancreas ([5]; 60 min): 1.7 ± 0.3 % dose/g
- Radioactivity Distribution, Small intestine ([5]; 60 min): 10.9 ± 2.9 % dose/g
- Radioactivity Distribution, Spleen ([5]; 60 min): 1.9 ± 0.4 % dose/g
- Radioactivity Distribution, Stomach ([5]; 60 min): 39.4 ± 9.1 % dose/g
- Radioactivity Distribution, Thyroid ([5]; 60 min): 1318.7 ± 800.8 % dose/g
- Adrenal gland/Blood ratio ([5]; 120 min): 0.71 ± 0.32
- Adrenal gland/Kidney ratio ([5]; 120 min): 0.81 ± 0.44
- Adrenal gland/Liver ratio ([5]; 120 min): 1.33 ± 0.64
- Radioactivity Distribution, Adrenal gland ([5]; 120 min): 1.8 ± 0.7 % dose/g
- Radioactivity Distribution, Blood ([5]; 120 min): 2.6 ± 0.3 % dose/g
- Radioactivity Distribution, Heart ([5]; 120 min): 1.0 ± 0.2 % dose/g
- Radioactivity Distribution, Kidney ([5]; 120 min): 2.4 ± 0.6 % dose/g
- Radioactivity Distribution, Large intestine ([5]; 120 min): 10.0 ± 4.8 % dose/g
- Radioactivity Distribution, Liver ([5]; 120 min): 1.4 ± 0.2 % dose/g
- Radioactivity Distribution, Lung ([5]; 120 min): 2.6 ± 0.7 % dose/g
- Radioactivity Distribution, Pancreas ([5]; 120 min): 1.6 ± 0.1 % dose/g
- Radioactivity Distribution, Small intestine ([5]; 120 min): 4.8 ± 1.3 % dose/g
- Radioactivity Distribution, Spleen ([5]; 120 min): 1.7 ± 0.1 % dose/g
- Radioactivity Distribution, Stomach ([5]; 120 min): 38.6 ± 6.5 % dose/g
- Radioactivity Distribution, Thyroid ([5]; 120 min): 4664.0 ± 1419.1 % dose/g
